These results are taken from patent US20250340567A1, “Next Generation Synthetic Transcription Factors” (WISCONSIN ALUMNI RESEARCH FOUNDATION, priority 2018, published 2025).

Series [1] has as its target BRD4(1) first bromodomain (Homo sapiens, UniProt O60885). Particulars: cited from earlier work.
Series [2] deals with BRD4(2) second bromodomain (Homo sapiens, UniProt O60885). Particulars: cited from earlier work.
Series [3] deals with BET bromodomain. Particulars: read-out: IC50 BET bromodomain; cited from earlier work.
Series [4] concerns the target BRD3 (Homo sapiens, UniProt Q15059). Particulars: cited from earlier work.
In series [5] the target is BRD2 (Homo sapiens, UniProt P25440). Particulars: cited from earlier work.
Sequence of BRD2 (P25440 whole entry, species assumed): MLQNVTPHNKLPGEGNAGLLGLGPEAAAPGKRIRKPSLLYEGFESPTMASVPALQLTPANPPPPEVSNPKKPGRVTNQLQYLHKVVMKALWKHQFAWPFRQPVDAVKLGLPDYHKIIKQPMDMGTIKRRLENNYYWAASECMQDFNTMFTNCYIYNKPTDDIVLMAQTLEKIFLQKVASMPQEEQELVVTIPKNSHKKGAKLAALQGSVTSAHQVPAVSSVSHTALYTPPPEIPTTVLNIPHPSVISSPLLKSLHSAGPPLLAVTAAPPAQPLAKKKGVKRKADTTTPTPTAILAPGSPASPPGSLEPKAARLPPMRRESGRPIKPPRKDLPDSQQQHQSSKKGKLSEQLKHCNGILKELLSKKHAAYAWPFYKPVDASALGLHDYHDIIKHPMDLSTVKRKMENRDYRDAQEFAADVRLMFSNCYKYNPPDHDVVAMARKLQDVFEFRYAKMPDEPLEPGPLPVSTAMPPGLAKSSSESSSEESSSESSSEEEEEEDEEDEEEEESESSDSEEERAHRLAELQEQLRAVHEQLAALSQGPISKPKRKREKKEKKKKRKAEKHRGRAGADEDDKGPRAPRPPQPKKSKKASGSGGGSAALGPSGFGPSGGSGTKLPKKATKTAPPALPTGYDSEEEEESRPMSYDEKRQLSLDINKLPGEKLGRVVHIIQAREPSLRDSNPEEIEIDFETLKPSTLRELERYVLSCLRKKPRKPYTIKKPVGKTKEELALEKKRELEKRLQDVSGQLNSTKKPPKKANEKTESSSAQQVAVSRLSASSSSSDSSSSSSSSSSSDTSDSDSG
Series [6] can be described thus: Stability of synthetic transcription factors on storage, followed by mass spectra. The series is classed as physicochemical. Particulars: at 18° C., mass spectra (FIG. 2). The procedure: In as little as 5 days at 18° C., SynTEF1 begins to break down (FIG. 2).
Other synthetic transcription factors having an ether bond as described herein between the bromodomain binding moiety and the linker also have shown improved stability.

Series [7] deals with BET BD2. Particulars: cited from earlier work.
Series [8] concerns BET BD1. Particulars: cited from earlier work.

Sequence of BRD3 (Q15059 whole entry, species assumed): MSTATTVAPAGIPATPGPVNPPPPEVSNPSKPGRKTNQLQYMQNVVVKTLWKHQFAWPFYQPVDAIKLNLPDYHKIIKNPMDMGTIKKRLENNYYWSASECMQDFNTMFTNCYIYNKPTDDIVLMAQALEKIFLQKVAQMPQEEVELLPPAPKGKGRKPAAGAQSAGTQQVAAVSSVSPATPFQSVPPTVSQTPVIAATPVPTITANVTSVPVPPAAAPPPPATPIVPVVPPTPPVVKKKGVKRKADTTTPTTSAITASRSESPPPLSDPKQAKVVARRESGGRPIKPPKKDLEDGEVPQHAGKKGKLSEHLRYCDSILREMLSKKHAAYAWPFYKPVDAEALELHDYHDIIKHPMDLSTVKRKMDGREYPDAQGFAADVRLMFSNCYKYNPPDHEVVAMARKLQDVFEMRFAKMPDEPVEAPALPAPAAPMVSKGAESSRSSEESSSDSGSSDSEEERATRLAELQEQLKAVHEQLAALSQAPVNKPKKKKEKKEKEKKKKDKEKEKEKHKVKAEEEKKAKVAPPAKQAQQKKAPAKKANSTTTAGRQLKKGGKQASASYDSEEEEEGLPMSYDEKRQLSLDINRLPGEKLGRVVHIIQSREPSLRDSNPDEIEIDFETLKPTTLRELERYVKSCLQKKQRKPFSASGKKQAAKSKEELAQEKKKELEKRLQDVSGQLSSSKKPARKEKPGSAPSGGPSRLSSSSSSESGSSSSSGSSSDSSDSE

As usually defined, the IC50 is the point on the concentration scale where inhibition reaches its midpoint. `Cc1sc2c(c1C)C(c1ccc(Cl)cc1)=N[C@@H](CC(=O)NC(C)(C)C)c1nnc(C)n1-2` [(+)-JQ1]: the values for the half-maximal inhibitory concentration (IC50) in series [1] and in series [2] were 77 nM and 33 nM, respectively.
`CCNC(=O)C[C@@H]1N=C(c2ccc(Cl)cc2)c2cc(OC)ccc2-n2c(C)nnc21` [I-BET762]: in series [3], the IC50 is 32.5 to 42.5 nM.
Consider `CC(=O)N1c2ccc(-c3ccc(C(=O)O)cc3)cc2[C@H](Nc2ccc(Cl)cc2)C[C@@H]1C` [I-BET726], for which the 50% inhibitory concentration (IC50) in series [4] is 31 nM; in series [5] it was 41 nM.
In the case of `Cc1sc2c(c1C)C(c1ccc(Cl)cc1)=N[C@@H](CC(=O)NCCOCCOCCOCCOCCOCCOCCC(=O)NCCCN(C)CCCNC(=O)CCNC(=O)c1nc(NC(=O)CCNC(=O)c3cc(NC(=O)c4nc(NC(=O)CCNC(=O)c5cc(NC(=O)c6nccn6C)cn5C)cn4C)cn3C)cn1C)c1nnc(C)n1-2` [SynTEF1], in series [6], the “time at which the compound begins to break down” value is on record as at most 5 days.
On to `COc1cc(OC)c2c(=O)[nH]c(-c3cc(C)c(OCCO)c(C)c3)nc2c1` [RVX208], for which the figures for the IC50 in series [7] and in series [8] were 510 nM and 87000 nM, respectively.
